Drawing on patent US20230117034A1, “PYRAZOLOTRIAZINES” (Bayer Aktiengesellschaft, priority 2019, published 2023), this text covers IC50 for 21 compounds.

pIC50: −log10 of the molar value.

For one assay, the target named is T1, CDK9/CycT1 (Homo sapiens, UniProt P50750).
T1 construct: Recombinant full-length His-tagged human CDK9 and CycT1; purchased Life Technologies PV4131; host or cells: insect cells
As to the kind of experiment: CDK9/CycT1 high ATP kinase assay (TR-FRET, 2 mM ATP). The format is biochemical. To be noted: 2 mM ATP (high ATP); median; read-out: CDK9/CyclinT1, 2 mM ATP (high ATP), IC50 (median). The method, then: CDK9/CycT1-inhibitory activity of compounds of the present invention at a high ATP concentration after preincubation of enzyme and test compounds was quantified employing the CDK9/CycT1 TR-FRET assay as described in the following paragraphs.
Recombinant full-length His-tagged human CDK9 and CycT1, expressed in insect cells and purified by Ni-NTA affinity chromatography, were purchased from Life Technologies (Cat. No PV4131). As substrate for the kinase reaction biotinylated peptide biotin-Ttds-[…] (C-terminus in amide form) was used which can be purchased e.g. form the company JERINI peptide technologies (Berlin, Germany).
For the assay 50 nanoL of a 100 fold concentrated solution of the test compound in DMSO was pipetted into either a black low volume 384 well microtiter plate or a black 1536 well microtiter plate (both Greiner Bio-One, Frickenhausen, Germany), 2 microL of a solution of CDK9/CycT1 in aqueous assay buffer [50 millimol/L Tris/HCl pH 8.0, 10 millimol/L MgCl2, 1.0 millimol/L dithiothreitol, 0.1 millimol/L sodium ortho-vanadate, 0.01% (v/v) Nonidet-P40 (Sigma)] were added and the mixture was incubated for 15 min at 22° C. to allow pre-binding of the test compounds to the enzyme before the start of the kinase reaction. […] The concentration of CDK9/CycT1 was adjusted depending of the activity of the enzyme lot and was chosen appropriate to have the assay in the linear range, typical concentrations were in the range of 0.5 microg/ml.
The resulting mixture was incubated 1 h at 22° C. to allow the formation of complex between the phosphorylated biotinylated peptide and the detection reagents. Subsequently the amount of phosphorylated substrate was evaluated by measurement of the resonance energy transfer from the Eu-chelate to the streptavidine-XL. Therefore, the fluorescence emissions at 620 nm and 665 nm after excitation at 350 nm was measured in a TR-FRET reader, e.g. a Pherastar (BMG Labtechnologies, Offenburg, Germany) or a Viewlux (Perkin-Elmer). The ratio of the emissions at 665 nm and at […] was taken as the measure for the amount of phosphorylated substrate.
A general note: In TR-FRET formats the signal depends on donor and acceptor labels being close together.

The test system of assay [1] is MDA-MB-231, human breast cancer cells. As to the kind of experiment: Proliferation assay MDA-MB-231 (crystal violet, 4 days). The format is cell-based. The conditions noted are these: Homo sapiens, MDA-MB-231, 96 h, MDA-MB-231 cells, median, read-out: Prolif-MDA MB-231, IC50-[mol/l] (median). The method, then:
Human tumour cells were originally obtained from the American Type Culture Collection (ATCC), or from the Deutsche Sammlung von Mikroorganismen und Zellkulturen (DSMZ, German Collection of Microorganisms and Cell Cultures). Cultivated tumour cells (CAL-120, human breast adenocarcinoma cells, DSMZ ACC-459; MDA-MB-231, human breast cancer cells, ATCC HTB-26) were plated at a density of 4,000 cells/well in a 96-well multititer plate in 200 microL of their respective growth medium supplemented 10% fetal calf serum. After 24 hours, the cells of one plate (zero-point plate) were stained with crystal violet (see below), while the medium of the other plates was supplemented with the test substances in various concentrations (0 micromol/L, as well as in the range of 0.01-10 micromol/L; the final concentration of the solvent dimethyl sulfoxide was adjusted to 0.1%) using a Tecan HP D300 Digital Dispenser. The cells were incubated for 4 days in the presence of test substances. Cell proliferation was determined by staining the cells with crystal violet: the cells were fixed by adding 20 microL/measuring point of an 11% glutaric aldehyde solution for 15 minutes at room temperature. After three washing cycles of the fixed cells with water, the plates were dried at room temperature. The cells were stained by adding 100 microL/measuring point of a 0.1% crystal violet solution (pH 3.0). After three washing cycles of the stained cells with water, the plates were dried at room temperature. The dye was dissolved by adding 100 microL/measuring point of a 10% acetic acid solution. The extinction was determined by photometry at a wavelength of 595 nm. The change of cell number, in percent, was calculated by normalization of the measured values to the extinction values of the zero-point plate (=0%) and the extinction of the untreated (0 μM) cells (=100%). The IC50 values (inhibitory concentration at 50% of maximal effect) were determined by means of a 4 parameter fit.

T1 sequence (P50750 whole entry): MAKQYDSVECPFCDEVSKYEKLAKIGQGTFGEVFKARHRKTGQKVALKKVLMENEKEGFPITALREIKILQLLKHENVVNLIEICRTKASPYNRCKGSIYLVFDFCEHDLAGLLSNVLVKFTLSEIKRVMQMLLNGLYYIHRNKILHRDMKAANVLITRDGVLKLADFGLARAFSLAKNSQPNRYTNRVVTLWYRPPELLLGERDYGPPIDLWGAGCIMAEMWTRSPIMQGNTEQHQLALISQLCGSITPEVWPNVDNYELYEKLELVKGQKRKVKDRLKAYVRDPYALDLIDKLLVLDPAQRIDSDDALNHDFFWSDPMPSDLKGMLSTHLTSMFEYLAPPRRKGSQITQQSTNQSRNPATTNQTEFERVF
T1 sequence (O60563 whole entry partner): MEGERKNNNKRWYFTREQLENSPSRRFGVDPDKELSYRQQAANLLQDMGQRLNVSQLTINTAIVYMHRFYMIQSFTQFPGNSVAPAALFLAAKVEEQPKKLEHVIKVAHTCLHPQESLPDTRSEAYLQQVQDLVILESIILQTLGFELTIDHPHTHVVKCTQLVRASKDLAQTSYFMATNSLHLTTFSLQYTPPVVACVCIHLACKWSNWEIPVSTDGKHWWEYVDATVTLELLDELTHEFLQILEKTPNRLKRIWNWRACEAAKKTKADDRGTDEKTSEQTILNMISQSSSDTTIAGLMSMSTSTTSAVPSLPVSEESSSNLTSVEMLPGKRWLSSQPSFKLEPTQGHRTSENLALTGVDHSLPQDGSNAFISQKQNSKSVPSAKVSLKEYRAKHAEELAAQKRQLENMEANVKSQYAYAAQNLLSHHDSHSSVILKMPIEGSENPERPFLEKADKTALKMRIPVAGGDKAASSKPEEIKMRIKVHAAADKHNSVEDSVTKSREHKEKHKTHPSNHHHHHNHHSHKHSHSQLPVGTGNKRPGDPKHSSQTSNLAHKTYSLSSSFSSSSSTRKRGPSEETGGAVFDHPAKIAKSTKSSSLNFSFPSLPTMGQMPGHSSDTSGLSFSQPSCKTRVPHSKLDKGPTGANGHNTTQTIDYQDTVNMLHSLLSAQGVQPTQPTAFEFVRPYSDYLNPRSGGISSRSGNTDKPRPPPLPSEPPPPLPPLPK

For the compound `O=S1(=O)CCN(c2nc(NCc3nc4ccccc4[nH]3)n3ncc(Br)c3n2)CC1` [Example 166, 4-(4-{[(1H-benzimidazol-2-yl)methyl]amino}-8-bromopyrazolo[1,5-a][1,3,5]triazin-2-yl)-1 lambda^6-thiomorpholine-1,1-dione], the results for the pIC50 (at CDK9/CycT1; in assay [1]) were less than 4.70 and 6.79, respectively.

In the case of `COc1ccc2[nH]c(CNc3nc(N4CCN(C)CC4)nc4c(Br)cnn34)nc2c1` [Example 161, 8-bromo-N-[(5-methoxy-1H-benzimidazol-2-yl)methyl]-2-(4-methylpiperazin-1-yl)pyrazolo[1,5-a][1,3,5]triazin-4-amine], the figures for the pIC50 (on CDK9/CycT1; in assay [1]) were less than 4.70 and 7.95, respectively.

As for `Brc1cnn2c(NCc3nc4ccccc4[nH]3)nc(N3CCC3)nc12` [Example 143, 2-(azetidin-1-yl)-N-[(1H-benzimidazol-2-yl)methyl]-8-bromopyrazolo[1,5-a][1,3,5]triazin-4-amine], the values for the pIC50 (on CDK9/CycT1; in assay [1]) were less than 4.70 and 6.08, respectively.

Take `CN1CCN(c2nc(NCc3nc4c(F)cccc4[nH]3)n3ncc(C4CC4)c3n2)CC1` [Example 165, 8-cyclopropyl-N-[(4-fluoro-1H-benzimidazol-2-yl)methyl]-2-(4-methylpiperazin-1-yl)pyrazolo[1,5-a][1,3,5]triazin-4-amine]: the pIC50 at CDK9/CycT1 was less than 4.70; in assay [1] it was 7.02.

Regarding `Brc1cnn2c(NCc3nc4ccccc4[nH]3)nc(N3CCNCC3)nc12` [Example 128, N-[(1H-benzimidazol-2-yl)methyl]-8-bromo-2-(piperazin-1-yl)pyrazolo[1,5-a][1,3,5]triazin-4-amine], the pIC50 at CDK9/CycT1 was less than 4.70; in assay [1], 7.80.

On to `C[C@H]1CCCCN1c1nc(NCc2nc3ccccc3[nH]2)n2ncc(Br)c2n1` [Example 141, N-[(1H-benzimidazol-2-yl)methyl]-8-bromo-2-[(2S)-2-methylpiperidin-1-yl]pyrazolo[1,5-a][1,3,5]triazin-4-amine], for which the pIC50 on CDK9/CycT1 is 4.89; in assay [1] it was 7.42.

In the case of `CN1CCN(c2nc(NCc3nc4c(F)cccc4[nH]3)n3ncc(Br)c3n2)CC1` [Example 126, 8-bromo-N-[(4-fluoro-1H-benzimidazol-2-yl)methyl]-2-(4-methylpiperazin-1-yl)pyrazolo[1,5-a][1,3,5]triazin-4-amine], the pIC50 on CDK9/CycT1 was less than 4.70; in assay [1], 7.88.

As to `N=S1(=O)CCN(c2nc(NCc3nc4ccccc4[nH]3)n3ncc(Br)c3n2)CC1` [Example 145, 4-(4-{[(1H-benzimidazol-2-yl)methyl]amino}-8-bromopyrazolo[1,5-a][1,3,5]triazin-2-yl)-1-imino-1lambda^6-thiomorpholin-1-one], the pIC50 on CDK9/CycT1 was less than 4.70; in assay [1], 5.79.

`CC(C)c1cnn2c(NCc3nc4ccccc4[nH]3)nc(N3CC4(COC4)C3)nc12` [Example 9, N-[(1H-benzimidazol-2-yl)methyl]-2-(2-oxa-6-azaspiro[3.3]heptan-6-yl)-8-(propan-2-yl)pyrazolo[1,5-a][1,3,5]triazin-4-amine]: the pIC50 on CDK9/CycT1 is less than 4.70; in assay [1], 5.93.

Take `Brc1cnn2c(NCc3nc4ccccc4[nH]3)nc(N3CCN4CCC[C@@H]4C3)nc12` [Example 149, N-[(1H-benzimidazol-2-yl)methyl]-8-bromo-2-[(8aR)-hexahydropyrrolo[1,2-a]pyrazin-2 (1 H)-yl]pyrazolo[1,5-a][1,3,5]triazin-4-amine]: the pIC50 at CDK9/CycT1 was less than 4.70; in assay [1], 6.56.

`C[C@@H]1CN(c2nc(NCc3nnc(-c4ccccc4)[nH]3)n3ncc(Br)c3n2)C[C@H](C)N1` [Example 127, 8-bromo-2-[(3R,5S)-3,5-dimethylpiperazin-1-yl]-N-[(5-phenyl-4H-1,2,4-triazol-3-yl)methyl]pyrazolo[1,5-a][1,3,5]triazin-4-amine]: the pIC50 was 5.20 at CDK9/CycT1 and 7.49 in assay [1].

Take `OCC1CCN1c1nc(NCc2nc3ccccc3[nH]2)n2ncc(Br)c2n1` (stereo not shown) [Example 147, [1-[4-(1H-benzimidazol-2-ylmethylamino)-8-bromo-pyrazolo[1,5-a][1,3,5]triazin-2-yl]azetidin-2-yl]methanol]: the figures for the pIC50 (on CDK9/CycT1; in assay [1]) were less than 4.70 and 6.50, respectively.

Consider `C[C@@H]1CN(c2nc(NCc3nc4ccccc4[nH]3)n3ncc(Br)c3n2)C[C@H](C)N1` [Example 142, N-(1H-benzimidazol-2-ylmethyl)-8-bromo-2-[(3R,5S)-3,5-dimethylpiperazin-1-yl]pyrazolo[1,5-a][1,3,5]triazin-4-amine], for which the values for the pIC50 (on CDK9/CycT1; in assay [1]) were less than 4.70 and 7.63, respectively.

Take `C[C@@H]1CN(c2nc(NCc3nc4cc(F)ccc4[nH]3)n3ncc(Br)c3n2)C[C@H](C)O1` [Example 110, 8-bromo-2-[(2R,6S)-2,6-dimethylmorpholin-4-yl]-N-[(5-fluoro-1H-benzimidazol-2-yl)methyl]pyrazolo[1,5-a][1,3,5]triazin-4-amine]: the pIC50 on CDK9/CycT1 is 5.26.

For the compound `Brc1cnn2c(NCc3nnc(-c4ccccc4)[nH]3)nc(N3C[C@H]4C[C@@H]3CO4)nc12` [Example 118, 8-bromo-2-[(1R,4R)-2-oxa-5-azabicyclo[2.2.1]heptan-5-yl]-N-[(5-phenyl-4H-1,2,4-triazol-3-yl)methyl]pyrazolo[1,5-a][1,3,5]triazin-4-amine], the pIC50 on CDK9/CycT1 is 5.44.

In the case of `Fc1cc(-c2nnc(CNc3nc(N4CCOCC4)nc4c(Br)cnn34)[nH]2)cc(F)c1F` [Example 100, 8-bromo-2-(morpholin-4-yl)-N-{[5-(3,4,5-trifluorophenyl)-4H-1,2,4-triazol-3-yl]methyl}pyrazolo[1,5-a][1,3,5]triazin-4-amine], the pIC50 at CDK9/CycT1 is 6.09.

On to `c1cncc(-c2cnn3c(NCc4nc5ccccc5[nH]4)nc(N4CCOCC4)nc23)c1` [Example 108, N-[(1H-benzimidazol-2-yl)methyl]-2-(morpholin-4-yl)-8-(pyridin-3-yl)pyrazolo[1,5-a][1,3,5]triazin-4-amine], for which the pIC50 at CDK9/CycT1 is less than 4.70.

With `Fc1ccc(-c2cnn3c(NCc4nc5ccccc5[nH]4)nc(N4CCOCC4)nc23)cc1` [Example 106, N-[(1H-benzimidazol-2-yl)methyl]-8-(4-fluorophenyl)-2-(morpholin-4-yl)pyrazolo[1,5-a][1,3,5]triazin-4-amine], on CDK9/CycT1, the pIC50 was less than 4.70.

As to `Brc1cnn2c(NCc3nc4ccccc4[nH]3)nc(N3CCN4CCC[C@H]4C3)nc12` [Example 148, N-[(1H-benzimidazol-2-yl)methyl]-8-bromo-2-[(8aS)-hexahydropyrrolo[1,2-a]pyrazin-2 (1 H)-yl]pyrazolo[1,5-a][1,3,5]triazin-4-amine], the pIC50 on CDK9/CycT1 is less than 4.70.

With `Cc1ccc(-c2nnc(CNc3nc(N4CCOCC4)nc4c(Br)cnn34)[nH]2)cc1F` [Example 98, 8-bromo-N-{[5-(3-fluoro-4-methylphenyl)-4H-1,2,4-triazol-3-yl]methyl}-2-(morpholin-4-yl)pyrazolo[1,5-a][1,3,5]triazin-4-amine], the pIC50 at CDK9/CycT1 was 6.02.

`Brc1cnn2c(NCc3nnc(-c4ccccc4)[nH]3)nc(N3C[C@@H]4C[C@H]3CO4)nc12` [Example 120, 8-bromo-2-[(1S,4S)-2-oxa-5-azabicyclo[2.2.1]heptan-5-yl]-N-[(5-phenyl-4H-1,2,4-triazol-3-yl)methyl]pyrazolo[1,5-a][1,3,5]triazin-4-amine]: at CDK9/CycT1, the pIC50 is 4.98.
